{
  "source": "patent US6794347B2",
  "about": "“Process of making gel detergent compositions” (Unilever Home & Personal Care USA a division of Conopco, …, priority 2002, dated 2004)",
  "origin": "cited, not measured here",
  "note": "Read-outs that look alike come from different tables or passages of the source.",
  "data": [
    {"smiles": "CCCCCCCCCCCCCCCC(=O)O", "note": "[Fatty acid chain length 16]", "values": [
      {"measurement": "Measured pKa value", "setting": "Cited from Langmuir, Vol 16, pp 172-177, 2000", "value": "8.6˜8.8"},
      {"measurement": "Measured pKa value", "setting": "Cited from Proc. R. Soc. London, A133, 140, 1931", "value": 8.5}
    ]}
  ]
}
